Columns and labels:
HEK293 [1] = assay: maximal inhibition of ZIKV NS1 production (% inhibition); higher = stronger antiviral effect
Experimental: (§1)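 HEK293 cells in 1536-well plates were pre-treated with compound for 1 h, infected with ZIKV (MOI 1) for 24 h, and NS1 antigen (intra- plus extracellular) was measured by TR-FRET. Confirmation used 11-point 1:3 dilutions, and IC50 and maximal inhibition were fitted in GraphPad Prism.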

HEK293 [2] = assay: cytotoxicity IC50 (ATP content, uninfected cells); higher = less cytotoxic; conditions: infection: none
HEK293 [3] = assay: IC50 for inhibition of ZIKV NS1 production
Experimental: as §1

Compound	maximal inhibition (HEK293 [1])	cytotoxicity IC50 (HEK293 [2])	IC50 (HEK293 [3])
Cc1c(O)cccc1C(=O)N[C@@H](CSc1ccccc1)[C@H](O)CN1C[C@H]2CCCC[C@H]2C[C@H]1C(=O)NC(C)(C)C	84	> 100 µM	24 µM
COc1cc(NS(C)(=O)=O)ccc1Nc1c2ccccc2nc2ccccc12	105	70 µM	1.4 µM
CC[C@@H]1[C@@H](C)O[C@@](O)([C@@H](C)[C@H](O)[C@H](C)[C@H]2OC(=O)/C=C/C=C/[C@H](C)[C@@H]([C@@H](C)[C@@H](O)[C@H](C)[C@@]3(O)C[C@@H](O[C@H]4C[C@H](O)[C@H](O)[C@H](C)O4)[C@H](CC)[C@@H](C)O3)OC(=O)/C=C/C=C/[C@@H]2C)C[C@H]1O[C@H]1C[C@H](O)[C@H](O)[C@H](C)O1	100	1.5 µM	3.9 µM
C[C@@]12C(=O)OC(=O)[C@]1(C)[C@H]1CC[C@@H]2O1	100	> 100 µM	5.5 µM
CC(=O)OC[C@H]1O[C@@H]([S-])[C@H](OC(C)=O)[C@@H](OC(C)=O)[C@@H]1OC(C)=O.CCP(CC)CC.[Au+]	107	3 µM	3.5 µM
CC(C)C[C@H](NC(=O)CNC(=O)c1cc(Cl)ccc1Cl)B(O)O	102	2.1 µM	0.23 µM
Oc1ccc(-c2ccc(-c3cc(Nc4cccc(CNC5CC5)c4)n[nH]3)cc2)c(O)c1	108	27 µM	1.5 µM
OCCCNc1cc(-c2ccnc(Nc3cccc(Cl)c3)n2)ccn1	103	60 µM	0.79 µM
O=C(c1ccc(Nc2nccc(-c3cc4ccccc4s3)n2)cc1)N1CCC(N2CCCC2)CC1	100	> 100 µM	16 µM
Nc1ncn([C@@H]2O[C@H](CO)[C@@H](O)[C@H]2O)c(=O)n1	58	> 100 µM	44 µM
C=CC(=O)N1CCc2ccc(-n3c(=O)ccc4cnc5ccc(-c6cnn(C)c6)cc5c43)cc21	105	> 100 µM	13 µM
CN(C)C(=S)SSC(=S)N(C)C	99	0.18 µM	0.51 µM
Nc1c2ccccc2nc2ccccc12	102	100 µM	21 µM
O=C1CCc2ccc(OCCCCN3CCN(c4cccc(Cl)c4Cl)CC3)cc2N1	102	20 µM	25 µM
CC(C)C[C@H](NC(=O)[C@H](CCc1ccccc1)NC(=O)CN1CCOCC1)C(=O)N[C@@H](Cc1ccccc1)C(=O)N[C@@H](CC(C)C)C(=O)[C@@]1(C)CO1	90	0.32 µM	0.16 µM
CC(C)COCC(CN(Cc1ccccc1)c1ccccc1)N1CCCC1 (stereo unspecified)	55	> 100 µM	43 µM
COc1cccc2nc(-c3cccs3)nc(NN3C(=O)C=C(C)C3=O)c12	103	50 µM	11 µM
COc1ccc(-c2cc3c(C)nc(N)nc3n([C@H]3CC[C@H](OCCO)CC3)c2=O)cn1	78	0.47 µM	1.5 µM
Cc1ccccc1C(=O)c1ccc(Nc2ccc(Br)cc2N)cc1Cl	68	> 100 µM	40 µM

Compound	maximal inhibition (HEK293 [1])	cytotoxicity IC50 (HEK293 [2])	IC50 (HEK293 [3])
C[n+]1cc2c3c(ccc2c2ccc4cc5c(cc4c21)OCO5)OCO3	96	6.4 µM	2.9 µM
Nc1nc(F)nc2c1ncn2[C@@H]1O[C@H](CO)[C@@H](O)[C@H]1O	98	11 µM	2.9 µM
Cn1c2ccccc2c2c3c(c4c5ccccc5n(CCC#N)c4c21)CNC3=O	82	20 µM	0.94 µM
O=C(Nc1ccc([N+](=O)[O-])cc1Cl)c1cc(Cl)ccc1O	102	3.3 µM	8.3 µM
CCC[C@H](Nc1nc(-c2ccc(NC(=O)NCC)c(OC)c2)ncc1C)c1cccnc1	72	> 100 µM	0.17 µM
C[C@@H]1CC[C@@]2(OC1)O[C@H]1C[C@H]3[C@@H]4CC=C5C[C@@H](O[C@@H]6O[C@H](CO)[C@@H](O[C@@H]7O[C@@H](C)[C@H](O)[C@@H](O)[C@H]7O)[C@H](O)[C@H]6O[C@@H]6O[C@@H](C)[C@H](O)[C@@H](O)[C@H]6O)CC[C@]5(C)[C@H]4CC[C@]3(C)[C@H]1[C@@H]2C	99	45 µM	16 µM
C#C[C@]1(OC(C)=O)CC[C@H]2[C@@H]3CCC4=C/C(=N/O)CC[C@@H]4[C@H]3CC[C@@]21CC	48	> 100 µM	43 µM
C=C1C(=O)O[C@H]2[C@H]1CC/C(C)=C/CC[C@@]1(C)O[C@@H]21	106	20 µM	43 µM
COc1cccc(-c2ccc(NC(=O)C3=C(C(=O)O)CCC3)c(F)c2)c1	107	1.9 µM	4 µM
CC(C)C[C@H](NC(=O)CNC(=O)c1cc(Cl)ccc1Cl)B1OC(=O)C(CC(=O)O)(CC(=O)O)O1	94	1.6 µM	0.2 µM
Cc1cc2c(F)c(Oc3ncnn4cc(OC[C@@H](C)O)c(C)c34)ccc2[nH]1	104	1.4 µM	2.9 µM
O=c1[nH]nc(Sc2ncc([N+](=O)[O-])s2)n1-c1ccc2c(c1)OCCO2	97	12 µM	8 µM
Cc1nc(N)nc(N)c1-c1ccc(Cl)c(Cl)c1	102	1.5 µM	2 µM
CO[C@@]12[C@H](COC(N)=O)C3=C(C(=O)C(C)=C(N)C3=O)N1C[C@@H]1N[C@@H]12	97	73 µM	2.7 µM
Cc1cnc(NC(=O)Nc2cc(Br)c(C)cc2OC[C@@H]2CNCCO2)cn1	101	> 100 µM	1.7 µM
CS(=O)(=O)N1CCN(Cc2cc3nc(-c4cccc5[nH]ncc45)nc(N4CCOCC4)c3s2)CC1	65	70 µM	5.6 µM
CCCOc1ccc2[nH]c(NC(=O)OC)nc2c1	67	86 µM	4.9 µM
CCCCCCCCc1ccc(CCC(N)(CO)CO)cc1	102	> 100 µM	14 µM
